Source: publication PMC10239048, “Synthesis and antioxidant, antimicrobial, and antiviral activity of some pyrazole-based heterocycles using a 2(3H)-furanone derivative” (Journal of the Iranian Chemical Society, 2023)
Values after ≈ are worked out from the molar mass of the structure shown.

Tests used:
Staphylococcus aureus [1] = assay: Agar/disk diffusion inhibition zone, Staphylococcus aureus; format: cell-based; settings: diffusion method
[2] = tested on: embryonated chicken SPF eggs; settings: in vivo
[3] = tested on: avian influenza HPAI-H5N1 (AIV); design: species or system avian influenza virus HPAI-H5N1; settings: in vivo
[4] = Total antioxidant capacity (TAC), phosphomolybdenum method; settings: for Total antioxidant capacity: 500 µg/ml in methanol, 95 °C 90 min, 695 nm, means ± S.D., n = 3
Haemophilus (Gram –ve) [5] = assay: MIC measurement by serial dilution, Haemophilus; format: cell-based; settings: read-out: MIC Haemophilus (Gram –ve)
Candida albicans = assay: Agar diffusion antifungal activity, Candida albicans; format: cell-based; settings: diffusion method
Staphylococcus aureus [6] = assay: MIC measurement by serial dilution, Staphylococcus aureus; format: cell-based; settings: 37 °C, 24–72 h, read-out: MIC Staph (Gram + ve)
Haemophilus (Gram –ve) [7] = assay: Agar/disk diffusion inhibition zone, Haemophilus; format: cell-based; settings: diffusion method
SPF chicks = assay: Immune-boosting properties in vaccinated SPF chicks (humeral response); format: in vivo, chicken; settings: for Humeral response of vaccinated groups which received each tested compound separately: SPF chicks, vaccine-only group 7 log2; for Immune-boosting properties (in words): antibody titer in serum of vaccinated chicks
[8] = tested on: avian influenza HPAI-H5N1 (AIV); design: species or system avian influenza virus HPAI-H5N1; settings: in vivo; remark: listed apart in the source

CC(=O)N(C(C)=O)N1C(=O)C(=Cc2c(C)nn(-c3ccccc3)c2Cl)C=C1c1ccc(C)cc1 [Compound 13, N-Acetyl-N-(3-((5-chloro-3-methyl-1-phenyl-1H-pyrazol-4-yl)methylene)-2-oxo-5-(p-tolyl)-2,3-dihydro-1H-pyrrol-1-yl)acetamide]
Inhibition diameter Staph (Gram + ve) (Staphylococcus aureus [1]): 14 mm
CC50 [2]: 500 > µl/ egg
TI [3]: 71.42
Antioxidant activity (in words) [4]: Moderate antioxidant activity
Total antioxidant capacity [4]: 190.0 ± 1.67 mg AAE/g dry compound
MIC (Haemophilus (Gram –ve) [5]): 10 µg/mL (≈ 21.1 µM)
Candida albicans (diameter of inhibition zone) (Candida albicans): 14 mm
MIC (Staphylococcus aureus [6]): 9 µg/mL
Inhibition diameter Haemophilus (Gram –ve) (Haemophilus (Gram –ve) [7]): 12 mm
Humeral response of vaccinated groups which received each tested compound separately (SPF chicks): 6.9 log2
Antiviral activity against avian influenza virus (in words) [8]: less antiviral activity

Cc1ccc(C2=CC(=Cc3c(C)nn(-c4ccccc4)c3Cl)C(=O)N2N=Cc2ccc(Cl)cc2)cc1 [Compound 15, 3-((5-Chloro-3-methyl-1-phenyl-1H-pyrazol-4-yl)methylene)-1-((4-chlorobenzylidene)-amino)-5-(p-tolyl)-1,3-dihydro-2H-pyrrol-2-one]
Inhibition diameter Staph (Gram + ve) (Staphylococcus aureus [1]): 6 mm
CC50 [2]: 500 > µl/ egg
TI [3]: 55.5
Total antioxidant capacity [4]: 262.27 ± 2.51 mg AAE/g dry compound
MIC (Haemophilus (Gram –ve) [5]): 16 µg/mL (≈ 31.2 µM)
Candida albicans (diameter of inhibition zone) (Candida albicans): 6 mm
MIC (Staphylococcus aureus [6]): 18 µg/mL
Inhibition diameter Haemophilus (Gram –ve) (Haemophilus (Gram –ve) [7]): 7 mm
Humeral response of vaccinated groups which received each tested compound separately (SPF chicks): 6.6 log2
Antiviral activity against avian influenza virus (in words) [8]: little antiviral activity
Virus titer with compound [8]: 10^5

Cc1ccc(C(=O)CC(=Cc2c(C)nn(-c3ccccc3)c2Cl)C(=O)NCc2ccccc2)cc1 [Compound 5, N-Benzyl-2-((5-chloro-3-methyl-1-phenyl-1H-pyrazol-4-yl)methylene)-4-oxo-4-(p-tolyl)butanamide]
Inhibition diameter Staph (Gram + ve) (Staphylococcus aureus [1]): 24 mm
CC50 [2]: 300 > µl/ egg
TI [3]: 96.77
Total antioxidant capacity [4]: 221.14 ± 4.63 mg AAE/g dry compound
MIC (Haemophilus (Gram –ve) [5]): 3 µg/mL (≈ 6.2 µM)
Candida albicans (diameter of inhibition zone) (Candida albicans): 22 mm
MIC (Staphylococcus aureus [6]): 3 µg/mL
Inhibition diameter Haemophilus (Gram –ve) (Haemophilus (Gram –ve) [7]): 23 mm
Humeral response of vaccinated groups which received each tested compound separately (SPF chicks): 7.4 log2
Immune-boosting properties (in words) (SPF chicks): special immune-boosting properties
Antiviral activity against avian influenza virus (in words) [8]: remarked antiviral activity
Virus titer with compound [8]: 10^1

Cc1ccc(C(=O)CC(=Cc2c(C)nn(-c3ccccc3)c2Cl)C(=O)NN)cc1 [Compound 8, 2-((5-Chloro-3-methyl-1-phenyl-1H-pyrazol-4-yl)methylene)-4-oxo-4-(p-tolyl)butanehydrazide]
Inhibition diameter Staph (Gram + ve) (Staphylococcus aureus [1]): 8 mm
CC50 [2]: 500 > µl/ egg
TI [3]: 55.5
Antioxidant activity (in words) [4]: Moderate antioxidant activity
Total antioxidant capacity [4]: 145.0 ± 1.73 mg AAE/g dry compound
MIC (Haemophilus (Gram –ve) [5]): 12 µg/mL (≈ 29.3 µM)
Candida albicans (diameter of inhibition zone) (Candida albicans): 8 mm
MIC (Staphylococcus aureus [6]): 13 µg/mL
Inhibition diameter Haemophilus (Gram –ve) (Haemophilus (Gram –ve) [7]): 4 mm
Humeral response of vaccinated groups which received each tested compound separately (SPF chicks): 6.6 log2
Antiviral activity against avian influenza virus (in words) [8]: little antiviral activity

Cc1ccc(C(=O)CC(=Cc2c(C)nn(-c3ccccc3)c2Cl)C(=O)NNc2ccccc2)cc1 [Compound 10, 2-((5-Chloro-3-methyl-1-phenyl-1H-pyrazol-4-yl)methylene)-4-oxo-N'-phenyl-4-(p-tolyl)butanehydrazide]
Inhibition diameter Staph (Gram + ve) (Staphylococcus aureus [1]): 7 mm
CC50 [2]: 500 > µl/ egg
TI [3]: 55.5
Antioxidant activity (in words) [4]: highest potent levels of activity
Total antioxidant capacity [4]: 336.0 ± 3.46 mg AAE/g dry compound
MIC (Haemophilus (Gram –ve) [5]): 17 µg/mL (≈ 35.1 µM)
Candida albicans (diameter of inhibition zone) (Candida albicans): 7 mm
MIC (Staphylococcus aureus [6]): 13 µg/mL
Inhibition diameter Haemophilus (Gram –ve) (Haemophilus (Gram –ve) [7]): 6 mm
Humeral response of vaccinated groups which received each tested compound separately (SPF chicks): 6.9 log2
Antiviral activity against avian influenza virus (in words) [8]: little antiviral activity

Cc1ccc(-c2cc(Cc3c(C)nn(-c4ccccc4)c3Cl)c(=O)[nH]n2)cc1 [Compound 9, 4-((5-chloro-3-methyl-1-phenyl-1H-pyrazol-4-yl)methyl)-6-(p-tolyl)pyridazin-3(2H)-one]
Inhibition diameter Staph (Gram + ve) (Staphylococcus aureus [1]): 2 mm
CC50 [2]: 400 > µl/ egg
TI [3]: 50
Antioxidant activity (in words) [4]: highest potent levels of activity
Total antioxidant capacity [4]: 374.0 ± 2.08 mg AAE/g dry compound
MIC (Haemophilus (Gram –ve) [5]): 20 µg/mL (≈ 51.2 µM)
Candida albicans (diameter of inhibition zone) (Candida albicans): 2 mm
MIC (Staphylococcus aureus [6]): 19 µg/mL
Inhibition diameter Haemophilus (Gram –ve) (Haemophilus (Gram –ve) [7]): 1 mm
Humeral response of vaccinated groups which received each tested compound separately (SPF chicks): 6log2
Immune-boosting properties (in words) (SPF chicks): less immune-boosting properties
Antiviral activity against avian influenza virus (in words) [8]: little antiviral activity

Cc1ccc(C(=O)CC(=Cc2c(C)nn(-c3ccccc3)c2Cl)C(=O)NN=Cc2cn(-c3ccccc3)nc2-c2ccccc2)cc1 [Compound 16, 2-((5-Chloro-3-methyl-1-phenyl-1H-pyrazol-4-yl)methylene)-N'-((1,3-diphenyl-1H-pyrazol-4-yl)methylene)-4-oxo-4-(p-tolyl)butanehydrazide]
Inhibition diameter Staph (Gram + ve) (Staphylococcus aureus [1]): 22 mm
CC50 [2]: 500 > µl/ egg
TI [3]: 83.3
Total antioxidant capacity [4]: 205.82 ± 2.45 mg AAE/g dry compound
MIC (Haemophilus (Gram –ve) [5]): 6 µg/mL (≈ 9.39 µM)
Candida albicans (diameter of inhibition zone) (Candida albicans): 23 mm
MIC (Staphylococcus aureus [6]): 5 µg/mL
Inhibition diameter Haemophilus (Gram –ve) (Haemophilus (Gram –ve) [7]): 23 mm
Humeral response of vaccinated groups which received each tested compound separately (SPF chicks): 7.2 log2
Immune-boosting properties (in words) (SPF chicks): special immune-boosting properties
Antiviral activity against avian influenza virus (in words) [8]: remarked antiviral activity
Virus titer with compound [8]: 10^1

Cc1ccc(C2=CC(=Cc3c(C)nn(-c4ccccc4)c3Cl)C(=O)O2)cc1 [Compound 3, 3-((5-Chloro-3-methyl-1-phenyl-1H-pyrazol-4-yl)methylene)-5-(p-tolyl)furan-2(3H)-one]
Inhibition diameter Staph (Gram + ve) (Staphylococcus aureus [1]): 23 mm
CC50 [2]: 300 > µl/ egg
TI [3]: 96.77
Antioxidant activity (in words) [4]: Moderate antioxidant activity
Total antioxidant capacity [4]: 156.33 ± 4.04 mg AAE/g dry compound
MIC (Haemophilus (Gram –ve) [5]): 1 µg/mL (≈ 2.65 µM)
Candida albicans (diameter of inhibition zone) (Candida albicans): 24 mm
MIC (Staphylococcus aureus [6]): 2 µg/mL
Inhibition diameter Haemophilus (Gram –ve) (Haemophilus (Gram –ve) [7]): 22 mm
Humeral response of vaccinated groups which received each tested compound separately (SPF chicks): 7.3 log2
Immune-boosting properties (in words) (SPF chicks): special immune-boosting properties
Antiviral activity against avian influenza virus (in words) [8]: remarked antiviral activity
Virus titer with compound [8]: 10^1

Cc1ccc(C2=CC(=Cc3c(C)nn(-c4ccccc4)c3Cl)C(=O)N2NC(=O)c2ccccc2)cc1 [Compound 14, N-(3-((5-Chloro-3-methyl-1-phenyl-1H-pyrazol-4-yl)methylene)-2-oxo-5-(p-tolyl)-2,3-dihydro-1H-pyrrol-1-yl)benzamide]
Inhibition diameter Staph (Gram + ve) (Staphylococcus aureus [1]): 7 mm
CC50 [2]: 500 > µl/ egg
TI [3]: 55.5
Total antioxidant capacity [4]: 261.0 ± 2.48 mg AAE/g dry compound
MIC (Haemophilus (Gram –ve) [5]): 16 µg/mL (≈ 32.3 µM)
Candida albicans (diameter of inhibition zone) (Candida albicans): 7 mm
MIC (Staphylococcus aureus [6]): 16 µg/mL
Inhibition diameter Haemophilus (Gram –ve) (Haemophilus (Gram –ve) [7]): 8 mm
Humeral response of vaccinated groups which received each tested compound separately (SPF chicks): 7.2 log2
Antiviral activity against avian influenza virus (in words) [8]: little antiviral activity

Cc1ccc(C2=CC(=Cc3c(C)nn(-c4ccccc4)c3Cl)C(=O)N2)cc1 [Compound 4, 3-((5-Chloro-3-methyl-1-phenyl-1H-pyrazol-4-yl)methylene)-5-(p-tolyl)-1,3-dihydro-2H-pyrrol-2-one]
Inhibition diameter Staph (Gram + ve) (Staphylococcus aureus [1]): 25 mm
CC50 [2]: 500 > µl/ egg
TI [3]: 83.3
Total antioxidant capacity [4]: 278.56 ± 4.61 mg AAE/g dry compound
MIC (Haemophilus (Gram –ve) [5]): 6 µg/mL (≈ 16 µM)
Candida albicans (diameter of inhibition zone) (Candida albicans): 25 mm
MIC (Staphylococcus aureus [6]): 5 µg/mL
Inhibition diameter Haemophilus (Gram –ve) (Haemophilus (Gram –ve) [7]): 22 mm
Humeral response of vaccinated groups which received each tested compound separately (SPF chicks): 7.5 log2
Immune-boosting properties (in words) (SPF chicks): special immune-boosting properties
Antiviral activity against avian influenza virus (in words) [8]: remarked antiviral activity
Virus titer with compound [8]: 10^1

Cc1ccc(C(=O)CC(=Cc2c(C)nn(-c3ccccc3)c2Cl)C(=O)NCC(C)C)cc1 [Compound 6, 2-((5-Chloro-3-methyl-1-phenyl-1H-pyrazol-4-yl)methylene)-N-isobutyl-4-oxo-4-(p-tolyl)butanamide]
Inhibition diameter Staph (Gram + ve) (Staphylococcus aureus [1]): 22 mm
CC50 [2]: 500 > µl/ egg
TI [3]: 83.3
Total antioxidant capacity [4]: 248.67 ± 4.11 mg AAE/g dry compound
MIC (Haemophilus (Gram –ve) [5]): 5 µg/mL (≈ 11.1 µM)
Candida albicans (diameter of inhibition zone) (Candida albicans): 20 mm
MIC (Staphylococcus aureus [6]): 4 µg/mL
Inhibition diameter Haemophilus (Gram –ve) (Haemophilus (Gram –ve) [7]): 25 mm
Humeral response of vaccinated groups which received each tested compound separately (SPF chicks): 7.4 log2
Immune-boosting properties (in words) (SPF chicks): special immune-boosting properties
Antiviral activity against avian influenza virus (in words) [8]: remarked antiviral activity
Virus titer with compound [8]: 10^1
